Data published in patent publication US11612601B1, “Targeting epidermal growth factor to treat vascular calcification” (THE FLORIDA INTERNATIONAL UNIVERSITY BOARD OF TRUSTEES, priority 2022, dated 2023).

Key:
[1] = system: CKD mice; experiment: Aorta immunofluorescence and subcellular (cytosolic) fractionation in CKD mice; assay type: in vivo, mouse
Protocol: 8-week-old wild type C57BL/6J mice (n=20, female) received the adenine-supplemented diet for 6 weeks to induce CKD, followed by two additional weeks of the diet containing 1.8% phosphate and 0.2% adenine to induce medial calcinosis. Mice were split into two groups (10 per group). The first group received daily tyrphostin AG1478 (10 mg/kg mouse), while the other group received vehicle (1% w/v, carboxymethylcellulose sodium salt). At study endpoint, the animals were euthanized, and the aortas were resected.
A subcellular protein fractionation kit for tissue (Thermofisher, 87790) was used to isolate cellular cytosolic fraction from the resected aortas, using the manufacturer's protocol. Briefly, the tissues were minced and homogenized using a grinder. The samples were then incubated in a cytoplasmic extraction buffer for 10 min at 4° C., followed by centrifugation at 1000×g for 5 min. The supernatants yielded the cytosolic fraction. To obtain sufficient protein for analyses, two aortas were pooled per data point.
VSMCs, osteoblasts, isolated EVs (either from cells or mouse aortas), and matrix vesicles (from osteoblasts) were lysed in RIPA lysis and extraction buffer supplemented with protease inhibitor. After adding Laemmli SDS-sample buffer (1:4 v/v, Boston BioProducts, BP-110R) to each lysate, the samples were denatured at 100° C. for 10 min, loaded into 7.5-12% 1-mm SDS-PAGE gel (15 to 20 μg protein per lane), and run at 170 V. The proteins were then transferred to Trans-Blot turbo nitrocellulose membranes (BIO-RAD, 1704158) at 25 V for 7 min.
To quantify the total protein, the membranes were stained using 2% w/v Ponceau stain (Alfa Aesar, AAJ6074409) for 20 min, followed by one wash with 5% acetic acid and milliQ water for 5 min. After imaging, the intensity of each lane was measured in ImageJ for total protein normalization. Membranes were blocked with 5% w/v bovine serum albumin (HyClone, SH30574.01) in TBS-Tween (1×) for 1 hour. […] The protein bands were visualized with Odyssey CLx scanner (Li-Cor), and quantified using Image Studio Lite software (Li-Cor). […]

[2] = system: Primary human coronary artery vascular smooth muscle cells; experiment: VSMC extracellular matrix collagen (Sircol soluble collagen assay); assay type: cell-based; conditions: VSMCs, OS media, 2.5 μM, 28 days; p=0.10
Protocol: After 28 days of treatment, soluble collagen was extracted from the cultures using acetic acid (0.5 M) through overnight incubation at 4° C. A colorimetric assay, Sircol soluble collagen assay (Biocolor, S1000), measured the total soluble extracellular matrix (ECM) collagen in each group. Samples were prepared and assessed according to the manufacturer's protocol. Results were then normalized to the total protein measured using BCA assay.

[3] = system: Osteoblasts (hFOB 1.19); experiment: In vitro calcification of osteoblasts, Alizarin Red S staining; assay type: cell-based, human; conditions: OS + 2.5 μM vs OS, 21 days; p=0.86
Protocol: Osteoblasts (from human fetus, hFOB 1.19, ATCC, CRL-11372) were cultured and grown in DMEM containing 10% v/v bovine calf serum and 1% v/v penicillin-streptomycin. Osteoblasts (passage 4-6) were harvested using 0.25% trypsin-EDTA solution (Caisson Labs, TRL01), seeded with a density of 5,200 cell.cm^−2, and incubated for 24 hours at 37° C. and 5% CO2 with controlled humidity. The cells were treated in three groups of control, OS, and OS supplemented with tyrphostin AG1478 (2.5 μM) for 21 days and media changed every three days. […] Similar to the VSMC experiments, EV-free media were added to the cultures on days 6, 13, and 20, and collected 24 hours later on days 7, 14, and 21. Collected media were centrifuged at 1,000×g for 5 min to remove cell debris. EVs were isolated using the ultracentrifugation at 100,000×g for 1 hour.
At the end of experiments (28 and 21 days of treatment on VSMCs and osteoblasts, respectively), media were removed, and the cells were fixed using Formalin (10%, Fisher Chemical, SF100). To visualize in vitro calcification, Alizarin Red S stain (ARS, Ricca, 500-32) was added to the wells and incubated for 30 min at room temperature. […]
To quantify the in vitro calcification, ARS stain was extracted using acetic acid (1.67 M, Fisher Chemical, A38S) on a shaker. […] Sample absorbance of 405 nm was measured using a multi-mode reader (BioTek, Synergy HTX).

[4] = treated CKD animals compared to CKD group

COc1cc2ncnc(Nc3cccc(Cl)c3)c2cc1OC [AG1478, tyrphostin AG1478]
CAV1, EGFR, and TNAP immunofluorescence in the aorta ([1]; qualitative, CKD mice treated, compared to chow-fed controls): elevation of all three proteins | cytosolic CAV1 protein in aorta [1, 4]: higher | cytosolic TNAP protein in aorta [1, 4]: higher | ECM collagen accumulation [2]: did not affect | quantification of the in vitro calcification of osteoblasts (Alizarin red) [3]: no significant difference
